Assay results taken from publication PMC9457168 (Proceedings of the National Academy of Sciences of the …, 2022).

Experiments:
LCMV = experiment: microbe, parasite or virus in culture; format: cell-based, lymphocytic choriomeningitis virus; conditions: Mammarenavirus choriomeningitidis, KB, read-out: EC50 (nM) Mean (SD) LCMV
TPMV = experiment: microbe, parasite or virus in culture; format: cell-based; conditions: Thottapalayam virus, HEK-293T, read-out: EC50 (nM) Mean (SD) TPMV
LCMV nucleoprotein = format: cell-based, lymphocytic choriomeningitis virus
LCMV Armstrong strain = format: cell-based, lymphocytic choriomeningitis virus
LCMV WE strain = conditions: mouse, in vivo

Row | Compound | EC50 (LCMV) | EC50 (TPMV) | LCMV nucleoprotein production (immunofluorescence) (LCMV nucleoprotein) | infectious viral particles in culture supernatants, pretreatment (LCMV Armstrong strain) | viral propagation, posttreatment (LCMV Armstrong strain) | viral titers in supernatants, pretreatment (LCMV Armstrong strain) | survival rate (LCMV WE strain) | inflammatory foci in liver (pathology) (LCMV WE strain; 30 mg/kg) | serum IFN-γ levels (LCMV WE strain; 30 mg/kg) | serum TNF-α levels (LCMV WE strain; 30 mg/kg) | viral antigen in liver (IHC) (LCMV WE strain; 30 mg/kg)
1 | O=C1c2c(O)c(=O)ccn2N([C@@H]2c3ccccc3SCc3c2ccc(F)c3F)[C@@H]2COCCN12 [BXA, baloxavir acid] | > 1000 nM | > 1000 nM | – | – | – | – | – | – | – | – | –
2 | NC(=O)c1ncn([C@@H]2O[C@H](CO)[C@@H](O)[C@H]2O)n1 [RBV, Ribavirin] | – | – | inhibited only at 1,000 nM | decreased infectious viral particles | significantly reduced viral propagation | increased | 20% | inflammatory foci were observed | equivalent level to the vehicle-treated mice | higher than that in compound B–treated mice | viral antigens were detected in hepatocytes
